Reference: a melting point compilation (Tetko et al.; mined from patent text by program, amines drawn as free bases though some values may be those of a salt)

| Compound | melting point |
| --- | --- |
| Cc1c(Br)nc(Nc2ccc(C#N)cc2)c(=O)n1C | 254 to 255 °C |
| O=C1C(=O)c2c(nc3ccc(Cl)cn23)-c2cccc(Cl)c21 | > 260 °C |
| NC1=NCc2c[nH]c3cccc1c23 | 233 to 235 °C |
| COC(=O)C(=NO)c1cc(Cl)nc(NC=O)n1 | 110 to 112 °C |
| COc1ccc(C(=O)c2ccccn2)cc1OC | 91.5 to 93 °C |
| COc1ccc(CNc2c3c(nc4ccccc24)CCCC3O)cc1 (stereo not given) | 163 to 165 °C |
| Cn1cc(-c2nnc(-c3ccncc3)o2)c2ccccc21 | 212 to 214 °C |
| CCSC1CCC2C3CCC4=CC(=O)C=CC4(C)C3(F)C(O)CC12C (stereo not given) | 196 to 197 °C |
| COCC1(C)CCCSc2cc(C#Cc3ccc(C(=O)O)cc3)ccc21 (stereo not given) | 182 to 183 °C |
| CCOC(=O)c1cc(C(=O)O)nc2cc(Cl)cc(Cl)c12 | 152 to 154 °C |
| NS(=O)(=O)c1ccc(CCN2CCN(c3ccncc3)CC2)cc1 | 203 to 204 °C |
| NC(=O)c1sc2nccc(N3CCCN(c4ccccc4)CC3)c2c1N | 215 to 218 °C |
| COC(CC(=O)c1ccccc1)c1ccc(Cl)cc1F (stereo not given) | 59 to 61 °C |
| COC(=O)c1ccc(CNC(=NC#N)NCCNC(=O)c2nc(Cl)c(N)nc2N)cc1 | 190 to 195 °C |
| CCN(CC)c1ccc(C(F)(F)F)cc1NC(=O)c1ccncc1 | 78 to 80 °C |
| CCn1cc(/C=C/c2cn(-c3ccccc3)nc2OCc2ccc(OCc3nc(-c4ccc(CC(=O)O)cc4)oc3C)c(OC)c2)cn1 | 146 to 147 °C |
| COc1ccc(C2=NOC(C)(c3nnc(S)n3N)C2)cc1OC1CCCC1 (stereo not given) | 228 to 229 °C |
| CN(C(=O)Cc1ccc([N+](=O)[O-])cc1)C1c2ccccc2CCC1N1CCCC1 (stereo not given) | 135 °C |
| Cc1ccc(-c2ccc3c(c2)C=C(C(=O)Nc2ccc(CNc4cccnc4)cc2)CC3)cc1 | 212 to 214 °C |
| CCCCCNC(=O)N1CCC(c2nc(C3=NOC(c4ccccc4)C3)cs2)CC1 (stereo not given) | 132 to 134 °C |
| CC(C)(C)OC(=O)NCCc1cccc(OCCC2Oc3ccccc3N(Cc3cccc(Cl)c3)C2=O)c1 (stereo not given) | 107 to 108 °C |
| O=C1c2cc(O)ccc2CN1c1ccc2sccc2c1 | 226 to 228 °C |
| CCCCCCCCCCCCCCCCC12CCC3=C(CCc4cc(OC)ccc43)C1=CCC2=O (stereo not given) | 55 to 56 °C |
| CCCCCCCC1(CCCCCCC)c2ccccc2-c2ccc(Br)cc21 | 32 °C |

| Compound | melting point |
| --- | --- |
| Clc1cccc(OCCBr)c1Cl | 51 to 56 °C |
| CC(C)Oc1c(-c2ccc(S(C)(=O)=O)cc2)cnn(-c2ccc(F)cc2)c1=O | 135 to 137 °C |
| C[C@H]1C[C@@H](Nc2ccccc2)c2ccccc2N1C(=O)c1ccccn1 (relative stereo) | 157 °C |
| CCN(CC)C(=O)Oc1cc(-c2ccccc2)nc2ccc([N+](=O)[O-])cc12 | 40 °C |
| COc1ccc(CCN(CCc2cccc(C(F)(F)F)c2)C(=O)CCCCC(N)=O)cc1OC | 125 to 126 °C |
| CNC(C(N)=O)c1cn(C2CCc3c(F)cc(F)cc3C2)c(=S)[nH]1 (stereo not given) | 212 to 213 °C |
| Cc1ncc([N+](=O)[O-])n1CCN=[N+]=[N-] | 51 to 51.5 °C |
| COc1cc2ncnc(Nc3cccc(C)c3)c2c(N)c1OC | 181 to 182 °C |
| CC(C)(C)OC(=O)N1CCN(c2ccc(N)cc2C#N)CC1 | 145 °C |
| CCC(C(C)=CC(CNC(=O)Cc1cccnc1)=NO)[N+](=O)[O-] (stereo not given) | 140 to 141 °C |
| O=Cc1csc(Nc2ccc(F)cc2)n1 | 152 to 155 °C |
| O=C(O)c1ccc(C#Cc2ccc(O)c(C34CC5CC(CC(C5)C3)C4)c2)cc1 | 254 to 255 °C |
| CCCCCCCCCCCCCCc1ccc(OCC2COC(C)(C)O2)cc1 (stereo not given) | 52 to 53 °C |
| Cc1cc(F)c(N)cc1O | 147 °C |
| CC(C)COC[C@H](CC(C)C)NC(=O)[C@H]1O[C@@H]1C(=O)OC(C)(C)C | 73.5 to 74.5 °C |
| CC(=O)OCC1Cc2cccc3c(C4=C(c5cn(C)c6ccccc56)C(=O)OC4=O)cn(c23)C1 (stereo not given) | 198 to 200 °C |
| CCNC(=O)CCCC1CCN(Cc2cnc3cc(NC(=O)c4ccc(-c5ccc(F)cc5)cc4)ccc3c2)CC1 | 209 to 213 °C |
| COC(=O)CCCc1cc2nc(Cl)ccc2n1S(=O)(=O)c1ccc(OC)cc1 | 96 °C |
| Clc1ccc(SC(Cn2ccnc2)C23CC4CC(CC(C4)C2)C3)cc1Cl (stereo not given) | 179 to 181 °C |
| CN(C)C(=O)c1cc(N)cc(C(F)(F)F)c1 | 154 °C |
| CNC(=O)c1ccccc1Sc1ccc(C)cc1[N+](=O)[O-] | 122 to 123 °C |
| CCCN1CC(NC(=O)C(C)(C)C)CC2c3cccc4[nH]c(Br)c(c34)CC21 (stereo not given) | 182 to 183 °C |
| CN1C[C@@H]2c3cc(Cl)ccc3Oc3ccccc3[C@H]2C1=O (relative stereo) | 148 °C |
| N#Cc1ccc(N2C(=O)NC3(CCS(=O)(=O)CC3)C2=O)cc1C(F)(F)F | 257 to 258 °C |

Results, then the molecule that gave them:

| melting point | Compound |
| --- | --- |
| 62 to 66 °C | CCCCCCC(=O)N[C@H](CO)C(=O)OCc1ccccc1 |
| 225 to 226 °C | CC(C)(C)OC(=O)N1CCN(C(=O)c2ccc(-c3[nH]nc4c3C(=O)c3c(NC(=O)NN5CCOCC5)cccc3-4)s2)CC1 |
| 129 to 132 °C | C=C1c2c(ccc(OC(C)=O)c2OC(C)=O)C(=O)N2CCCCC12 (stereo not given) |
| 174 °C | CCCc1nc(CSc2ccc(CCC(=O)O)cc2)c(C(=O)OCC)n1Cc1cc2c(cc1Cl)OCO2 |
| 163 to 165 °C | CCOC(=O)Cn1cc(Cc2cccc([N+](=O)[O-])c2)c2ccccc21 |
| 141 to 143 °C | CCCCc1nc2c(N)nc3ccccc3c2n1CCCCC(=O)N1CCOCC1 |
| 187 to 188 °C | c1ccc(COc2ccc(NC3=NN(c4ccccc4)CC3)cc2)cc1 |
| 215 to 216 °C | CCCCN=C(O)c1c(Cl)c(Sc2ccccc2)c(Sc2ccccc2)c(Cl)c1C(=O)O |
| 125 to 127 °C | COc1ccc(C(=O)Cc2ccccc2)c(Cl)c1Cl |
| 55 to 57 °C | CCOP(=O)(OCC)c1cccc(OCc2ccc3ccccc3c2)c1 |
| 128 °C | O=C1Cc2c(ccc3c2OC(CNCc2ccccc2)CC3)N1 (stereo not given) |
| 123 to 125 °C | CC(C)(C)OC(=O)NN(C(=O)OC(C)(C)C)C1(c2cccnc2)CCCCC1=O (stereo not given) |
| 210 to 211 °C | O=C(O)c1cccc2ccc(CBr)cc12 |
| 128 °C | COC(=S)c1cc(F)c(-c2ccccc2)nc1Nc1ccc(F)cc1F |
| 180 to 185 °C | c1ccc2c(c1)c(-c1cc3nccnc3[nH]1)cn2CCCN1CCOCC1 |
| 146 to 148 °C | COc1ccc(CCc2ccccc2C2(OC)C=CC(C(N)=O)=C(O)C2)cc1OC (stereo not given) |
| 94 °C | O=C(Cl)Oc1cccc(NC(=O)C2CC2)c1 |
| 183 to 185 °C | CCCn1c(-c2ccccc2)nc2cc(C#N)c(C#N)cc21 |
| 116 to 117 °C | CC(C(=O)NCC(=O)OCc1ccccc1)N1CCN(CC(=O)OC(C)(C)C)CCN(CC(=O)OC(C)(C)C)CCN(CC(=O)OC(C)(C)C)CC1 (stereo not given) |
| 171 to 173 °C | CCC1(O)CC2CC[C@]1(CS(=O)(=O)N1CCC3(C=Cc4ccccc43)CC1)C2(C)C (stereo not given in full) |
| 192 to 194 °C | CCCOc1cc2sc(C(=O)O)cc2cc1OCC |
| 184 to 186 °C | Cc1cc(Cn2c(-c3ccccc3)nc(Cl)c2CO)ccc1OCc1ccccc1 |
| 49 to 50 °C | CCCCCC/C(=C\c1ccccc1)C1O[C@@H](C(=O)OC)[C@H](C(=O)OC)O1 |
| 217 °C | Cc1cc(F)ccc1-c1cncc(OC2SCC(O)C(O)C2O)c1 (stereo not given) |
| 166 to 167 °C | Nc1nnc(N2CCN(CCOc3ccc(Br)cc3)CC2)[nH]1 |
| 119 to 120 °C | Nc1nc(Cl)cc(C=C(Cl)Cl)n1 |

| melting point | Compound |
| --- | --- |
| 125 to 135 °C | Cc1noc(NS(=O)(=O)c2ccccc2-c2ccc(-c3ncco3)cc2CN(C)C(=O)c2cccc(F)c2)c1C |
| 200 to 202 °C | CS(=O)(=O)c1ccc(N2CC(O)(C(F)(F)F)N=C2c2ccc3c(c2)OCO3)cc1 (stereo not given) |
| 267 to 268 °C | CCCCOC(=O)CNC(=O)c1ccc2cc(C(=O)O)[nH]c2c1 |
| 60 to 62 °C | OC1CN(CCCOCCc2ccc3sccc3c2)C1 |
| 140 to 143 °C | O=c1oc(Nc2ccccc2I)nc2ccccc12 |
| 109 °C | N#CC(Cl)CS(=O)(=O)c1ccc(OC(F)(F)C(Cl)Cl)cc1 (stereo not given) |
| 84 to 86 °C | COc1ccc(CN2CCSC2=O)cc1 |
| 90 to 91 °C | CCOP(C)(=O)c1cc(Cl)ccc1Cl (stereo not given) |
| 280 to 285 °C | Cc1c(C)c(Cl)c2[nH]c(Cl)nc2c1Cl |
| 237 to 239 °C | Cc1ccc2nc(-c3ccc([N+](=O)[O-])cc3)cn2c1 |
| 278 to 280 °C | c1ccc2c(NC3CCC(Nc4nccc5ccccc45)CC3)nccc2c1 (stereo not given) |
| 113 to 115 °C | C#CCOc1cc(NC(=O)C2NCC3CC32)c(F)cc1Cl (stereo not given) |
| > 260 °C | O=C1c2nccc([N+](=O)[O-])c2-c2nc3ccccc3c3ccnc1c23 |
| 231 to 234 °C | Nc1cccc2cc(C(=O)O)ccc12 |
| 107 to 109 °C | COc1cc(C(=O)N2CCC(CCN3CCC(C(=O)c4nc5ccccc5n4Cc4ccc(F)cc4)CC3)(c3ccccc3)C2)cc(OC)c1OC (stereo not given) |
| 192 to 193 °C | O[C@@H]1CCCN(C[C@@H]2CCN(CCc3c[nH]c4ccc(-n5cncn5)cc34)C2)[C@@H]1c1ccccc1 |
| 178 to 180 °C | COCc1cc(-c2ncc3[nH]c4cccc(Cc5ccccc5Cl)c4c3c2COC)no1 |
| 130 to 131 °C | COc1cc(CCCOS(C)(=O)=O)ccc1OCc1coc(/C=C/c2ccccc2)n1 |
| 96 to 99 °C | Cc1ccc(S(=O)(=O)OCC2CNC(=O)O2)cc1 (stereo not given) |
| 86 °C | CCC=NNC=C(C(=O)OCC)C(=O)c1cc(F)c(F)c(F)c1F |
| 228 to 229 °C | Cn1c(=O)oc2cc3c(cc21)OCC31C(=O)N(C(c2ccccc2)c2ccccc2)c2ccccc21 (stereo not given) |
| 100 to 102 °C | CC(=O)NCC1(C)OCCc2c1[nH]c1ccccc21 (stereo not given) |
| 216 to 217 °C | Cc1ccccc1-c1c(C(=O)O)c(=O)oc2cc3c(cc12)CCCC3 |
| 90 to 94 °C | COc1cc(I)c(F)cc1Cl |
| 51 to 52 °C | CCOC(=O)c1ccc(CCC(=O)CO)cc1 |
| 94 to 96 °C | C(#Cc1cnc(-c2cccs2)s1)c1ccccc1 |
